Measurements taken from US20080311589A1, “METHOD OF HIGH-THROUGHPUT SCREENING OF MOLECULES AND COMPOUNDS FOR THEIR EFFECTS ON BIOLOGICAL AND CHEMICAL PROCESSES” (priority 1999, published 2008).
Like-named read-outs stand apart in the source and are kept apart here.

Assays:
[1] = tested on: p3TPLux TGFβ-responsive reporter in 6F mink lung cells; assay: luciferase assay, stably transfected p3TPLux; format: cell-based; conditions: substance alone
Procedure: FIG. 19 graphs the dose-response of transcriptional activation of compounds 1a and 2 in the presence (*) or absence (•) of 400 pM TGFβ1. 20,000 6F mink lung cells ( ) were seeded in 384 well plates, allowed to attach for 16 hours in 10% mink medium, and were treated with the indicated concentrations of 1a or 2.
We screened more than 16,000 chemical compounds to identify those that specifically activated expression of a reporter gene (luciferase) under the control of TGFβ-responsive elements in stably transfected mammalian cells (mink lung epithelial cells). […] Given the structural similarity of compounds 1a-c, we expected that all three were operating through a common mechanism. We therefore continued testing on only one, compound 1a, as representative of the group.

[2] = tested on: p3TPLux in 6F mink lung cells; assay: antagonism of p3TPLux activation in 6F mink lung cells; format: cell-based; conditions: for suppression of reporter activation by copper: TGFβ-responsive reporter; for suppression of reporter activation by 1a / suppression of reporter activation by 2 / suppression of reporter activation by TGFβ: TGFβ-responsive reporter in mink lung epithelial cells
Procedure: LUCIFERASE ASSAYS: Our transient transfection luciferase assay was described previously by us (Stockwell et al., Chem Biol 5:385, 1998). Briefly, 100,000 Mv1Lu mink lung epithelial cells were transiently transfected in 12-well dishes with 400 ng p3TPLux or pNFkB-Lux, with or without 50 ng pFC-MEKK, in 300 μL minimal essential medium with non-essential amino acids. The DEAE-dextran/chloroquine/DMSO methods was used for transfection (Stockwell et al., Chem Biol 6:71, 1999). After cell lysis in 120 μL lysis buffer, a Beckman LS 6500 liquid scintillation counter was used in single photon mode to quantitate luminescence. For detection of luciferase activity in 6F cells (including the primary screen), 20,000 6F cells were seeded in 50 μL of 10% mink medium in each well of a white 384-well plate (Nalge Nune International; Naperville, Ill.; cat#164610) using a Multidrop 384 liquid dispenser (Lab Systems; Helsinki, Finland). After 16 hours, medium was removed using a 24 channel wand (V&P Scientific, Inc.; San Diego, Calif.; cat#VP 186L), the cells were washed with 75 μL of 0.2% mink medium (containing 0.2% FBS), and reagents were added in 40 μL of 0.2% medium. For the primary screen, reagents were added by pin transfer using 384 polypropylene pin arrays (Matrix Technologies; Hudson, N.H.). After 24 hours, the cells were cooled on ice and washed twice with 75 μL Hanks Balanced Salt Solution (HBSS; GibcoBRL; cat#24020-117). Then 20 μL lysis buffer (25 mM glycylglycine (Sigma; cat#E-0396), 1% Triton X-100 (Sigma; cat#T-9284), 1 mM dithiothreitol (DTT; Sigma; cat#D-5545), 1 mM phenylmethylsulfonyl fluoride (PMSF; Sigma; cat#P-7626)) was added to each well with a Multidrop. After incubating the cells for five minutes on ice, 20 μL of ATP/luciferin solution was added (25 mM glycylglycine pH 7.8, 15 mM MgSO4, 4 mM EGTA, 6.25 mM K2HPO4 (Sigma; cat#P5504) pH 7.8, 5 mM DTT, 75 μM D-luciferin (Sigma, cat# L-9504, 2 mM ATP (Sigma; cat#A-7699)). Light output was immediately measured with an Analyst 384-well platereader (LJL), with 0.5 second counting time per well.

[3] = UV spectral shift binding assay with 2; conditions: metal ion concentration inducing a 50% shift in λmax of UV shoulder of 2 from 297 nm to 310 nm ([2] = 20 μM); read-out: EC50UV 2
Procedure: (§1) UV SPECTRAL SHIFT BINDING ASSAY: A quartz cuvette with 1 mL deionized, distilled water was used as a blank on a Cary 1E UV-visible spectrophotomer. 1a or 2 was diluted to a final concentration of 15 μM or 20 μM, respectively, and the UV spectrum from 240 nm to 320 nm was measured. […] Upon addition of certain transition metals (Table 1), this peak shifted such that the new λmax was 273 nm and 310 nm, for 1a and 2, respectively. […] For the calculation of correlation coefficients, all values less than 7.5 μM were taken to be 7.5 μM, all values greater than 1000 μM were taken to be 1000 μm and all values less than 10 μM were taken to be 10 μM.

[4] = UV spectral shift binding assay with 1a; conditions: metal ion concentration inducing a 50% shift in λmax of UV shoulder of 1a ([1a] = 15 μM) from 292 nm to 273 nm; estimate of dissociation constant; read-out: EC50UV 1a
Procedure: as §1

[5] = tested on: Mv1Lu mink lung epithelial cells; assay: 384 well anti-BrdU cytoblot; format: cell-based; conditions: 384-well plate; antiproliferative agents 24 hours, then 10 μM BrdU 16 hours (FIG. 2)
Excerpt: FIG. 1. An immunodetection assay for DNA synthesis in high density arrays of mammalian cells. (a) Cartoon depiction of an anti-BrdU cytoblot. The thymine analog 5-bromodeoxyuridine (BrdU) is incorporated into the DNA of cells that are actively replicating their DNA. The cells are in the well, and BrdU is detected with a two step antibody binding procedure. The second antibody is conjugated to the enzyme horseradish peroxidase. In the presence of the chemiluminescent substrate luminol as well as hydrogen peroxide, light of wavelength 428 nm is generated. The light emission can be detected by exposing the plate to film. (b) A cytoblot can detect TGF-β's ability to prevent BrdU incorporation in mink lung epithelial cells. 2000 Mv1Lu mink lung epithelial cells were seeded in each well of a white, opaque 384 well plate. The cells were seeded in the indicated concentrations of TGF-β in 50 μL of DMEM with 1% fetal bovine serum (FBS), 100 units/mL penicillin G sodium, 100 μg/mL streptomycin sulfate and 100 μM each of the amino acids alanine, aspartic acid, glutamine, glycine, asparagine and proline (referred to throughout as 1% mink medium) and allowed to incubate at 37° C. with 5% CO2. After 16 hours, 5.5 μL of 100 μM BrdU in 1% mink medium was added to each well, for a final concentration of 10 μM BrdU. The cells were incubated at 37° C. with 5% CO2 for an additional 16 hours and then an anti-BrdU cytoblot protocol was performed (see protocol). Wells shown are magnified 4×.
FIG. 2. A cytoblot can detect the ability of numerous antiproliferative agents to inhibit BrdU incorporation. 2000 Mv1Lu mink lung epithelial cells were seeded in each well of a white, opaque 384 well plate. The cells were seeded in 40 μL of 1% mink media and immediately 40 μL of 2× stocks of the reagents shown was added to each well and the cells were allowed to incubate at 37° C. with 5% CO2. After 24 hours, 9 μL of 100 μM BrdU in 1% mink medium was added to each well, for a final concentration of 10 μM BrdU. The cells were incubated at 37° C. with 5% CO2 for an additional 16 hours and then an anti-BrdU cytoblot protocol was performed (see protocol). Wells shown are magnified 2.5×.
The ability of the cytoblot assay to detect changes in DNA synthesis was tested by measuring the incorporation of 5-bromodeoxyuridine (BrdU, Sigma Corporation, St. Louis, Mo., Cat.# B9285) into DNA in the presence or absence of the anti-mitogen transforming growth factor β (TGF-β). Mink lung cells, which are responsive to TGF-β, were seeded into each well of an opaque, white 384-well plate. The cells were subsequently treated with varying concentrations of TGF-β for 16 hours and then with 10 μM BrdU for 16 hours. […] The following protocols provide experimental detail. […]

[6] = metal ion concentration inhibiting 50% of the activation of p3TPLux by 1a ([1a] = 3 μM) in 6F mink lung cells, read-out: EC50SU 1a
[7] = metal ion concentration inhibiting 50% of the activation of p3TPLux by 2 ([2] = 64 μM) in 6F mink lung cells, read-out: EC50Su 2

SMILES	activation of the TGFβ-responsive reporter gene [1]	alteration of the effect of 1a, 2, or copper on the reporter [2]	suppression of reporter activation by copper [2]	suppression of reporter activation by 1a [2]	suppression of reporter activation by 2 [2]	suppression of reporter activation by TGFβ [2]	EC50 [2, 6]	EC50 [2, 7]	EC50 [3]	EC50 [4]	BrdU incorporation [5]
Oc1cccc2cccnc12 [8-hydroxyquinoline, 8-quinolinol]	did not activate our reporter	–	–	–	–	–	–	–	–	–	–
CC(C)(C#N)N=NC(C)(C)C#N [AIBN, 2,2′-azobis (2-methylpropinonitrile)]	–	neither agent altered the effect of 1a, 2, or copper	–	–	–	–	–	–	–	–	–
[Cl][Al]([Cl])[Cl] [Al^3+, A1C13]	–	–	did not	suppressed transcriptional activation by 1a	no effect on activation by 2 or TGFβ	no effect on activation by 2 or TGFβ	1 µM	> 300 µM	200 µM	30 µM	–
CC(=O)[O-].CC(=O)[O-].[Ba+2] [Ba^2+, Ba(OAc)2]	–	–	–	–	–	–	> 1000 µM	> 1000 µM	> 1000 µM	> 1000 µM	–
[Ca+2].[Cl-].[Cl-] [Ca^2+, CaCl2.2H2O]	–	–	–	–	–	–	> 1000 µM	> 1000 µM	> 1000 µM	> 1000 µM	–
O.O.O.O.O.O.[Cl-].[Cl-].[Co+2] [Co^2+, CoCl2.6H2O]	–	–	did not	completely suppressed	completely suppressed	no effect	–	–	–	–	–
[Cl-].[Cl-].[Co+2] [Co^2+, CoCl2.6H2O]	–	–	–	–	–	–	10 µM	30 µM	50 µM	100 µM	–
OO [Compound H2O2, H2O2]	–	neither agent altered the effect of 1a, 2, or copper	–	–	–	–	–	–	–	–	–
[Cl][Fe]([Cl])[Cl] [Fe^3+, FeCl3]	–	–	did not	completely suppressed	completely suppressed	no effect	2 µM	9 µM	< 10 µM	< 7.5 µM	–
[Cl-].[K+] [K^+, KCl]	–	–	–	–	–	–	> 1000 µM	> 1000 µM	> 1000 µM	> 1000 µM	–
[Cl-].[Cl-].[Mg+2] [Mg^2+, MgCl2]	–	–	–	–	–	–	> 1000 µM	> 1000 µM	> 1000 µM	> 1000 µM	–
O.O.O.O.[Cl][Mn][Cl] [Mn^2+, MnC12.4H2O]	–	–	did not	suppressed transcriptional activation by 1a	no effect on activation by 2 or TGFβ	no effect on activation by 2 or TGFβ	200 µM	> 300 µM	> 1000 µM	80 µM	–
[Cl-].[Na+] [Na^+, NaCl]	–	–	–	–	–	–	> 1000 µM	> 1000 µM	> 1000 µM	> 1000 µM	–
O.O.O.O.O.O.O=S(=O)([O-])[O-].[Ni+2] [Ni^2+, NiSO4.6H2O]	–	–	did not	suppressed transcriptional activation by 1a	no effect on activation by 2 or TGFβ	no effect on activation by 2 or TGFβ	10 µM	–	500 µM	280 µM	–
[Cl-].[Cl-].[Zn+2] [Zn^2+, ZnCl2]	–	–	suppressed the ability of copper to activate reporter gene expression	suppressed transcriptional activation by 1a	no effect on activation by 2 or TGFβ	no effect on activation by 2 or TGFβ	0.5 µM	> 300 µM	500 µM	< 7.5 µM	–
NC(=O)NO [hydroxyurea]	–	–	–	–	–	–	–	–	–	–	effectively prevent BrdU incorporation
